Data on 1 sequence can be found in PMC3679022, “A Cancer Specific Cell-Penetrating Peptide, BR2, for the Efficient Delivery of an scFv into Cancer Cells” (PLoS ONE, 2013).

In series [1] the test system is cancer cells (HeLa, HCT116 and B16/F10). The series is classed as cell-based, human, mouse. As to conditions: flow cytometry. The protocol:
(§1) To evaluate the internalization of FITC-labeled peptides, HeLa cells were seeded onto 12-well plates at a density of 2×10^5 cells per well and incubated for 24 h. FITC-labeled peptides, at various concentrations ranging from […], were then incubated with the cells for 30 min at 37°C. To compare the cellular uptake of peptides, cancer and normal cells were treated with FITC-labeled peptides (each, 10 µM) and incubated for 30 min at 37°C. Following the incubation, cells were washed three times with ice-cold PBS to remove excess extracellular complexes. Next, the cells were treated with trypsin (1 mg/ml) for 10 min to remove any remaining peptides bound to the cell surface. After trypsinization, the cells were collected by centrifugation (1,000×g for 5 min), resuspended with 500 µl ice-cold 2% FBS/PBS containing propidium iodide (PI), and then immediately analyzed (10,000 events/sample) by fluorescence activated cell sorting (FACS).
(§2) For all of these experimental conditions, flow cytometry analyses were performed with live cells using a Becton Dickinson FACSCalibur flow cytometer (BD Biosciences, San Diego, CA). In each case, the fluorescence of 10,000 viable cells was acquired. Viable cells were gated based on a sideward and forward scatter. […] The statistical significance was evaluated by Student’s t-test at a 95% confidence interval. […]
(In general: A flow cytometer gives signals particle by particle.)

The test system of series [2] is normal cells (HaCat, BJ and NIH 3T3). Description: Flow cytometry of FITC-labeled peptide uptake, normal cells. As to conditions: FITC-labeled peptide 10 µM, 30 min, 37°C, trypsin 1 mg/ml 10 min before FACS, 10,000 events. The series is classed as cell-based, human, mouse. How it is done:
as §1, §2

The next series has as its system HeLa cells. It is filed as cell-based, human. As to conditions: FACS. The protocol:
as §1
To understand further the cell-penetrating mechanism of peptides, the effects of temperature and metabolic inhibitors were examined. To elucidate the temperature dependency, HeLa cells were incubated at 4°C for 30 min prior to the addition of the peptides. Next, cells were treated with FITC-labeled peptides (each, 5 µM) at 4°C for 30 min. For the energy-depletion study, HeLa cells were preincubated with sodium azide (NaN3, 10 mM) at 37°C for 1 h and then incubated with FITC-labeled peptides (each, 5 µM) at 37°C for 30 min.
To study the role of endocytosis in peptide uptake, cells were pretreated with several endocytosis inhibitors at 37°C for 1 h: (i) amiloride (5 mM), which is known to block macropinocytosis by inhibiting a sodium channel; (ii) nocodazole (100 ng/ml), which inhibits the clathrin-mediated pathway; and (iii) methyl-ß-cyclodextrin (MßCD, 5 mM), which inhibits lipid raft-mediated processes by depleting cholesterol from the plasma membrane. All inhibitors were purchased from Sigma (St. Louis, MO).
To examine the effects of negatively charged components on the cell surface for peptide internalization, HeLa cells were pretreated with gangliosides (monosialoganglioside GM3 from canine blood), heparin sulfate, or sialic acid (Neu5Ac, all from Sigma) (20 µg/ml) for 30 min. For the inhibition of ganglioside biosynthesis, cells were pretreated with D-threo-1-phenyl-2-hexadecanoyl amino-3-morpholino-1-propanol (PPMP, 5 µM) for 48 h.
For all of these experimental conditions, flow cytometry analyses were performed with live cells using a Becton Dickinson FACSCalibur flow cytometer (BD Biosciences, San Diego, CA). In each case, the fluorescence of 10,000 viable cells was acquired. Viable cells were gated based on a sideward and forward scatter. For data analysis, WinMDI software (Joe Trotter, Scripps Research Institute, La Jolla, CA) was used. The statistical significance was evaluated by Student’s t-test at a 95% confidence interval.
Figure 2 BR2 specifically penetrates cancer cell membranes in a concentration-dependent manner. (A) Analysis of the cell-penetrating efficiency of each peptide in different cell types by flow cytometry. FITC-labeled Tat, BR1 and BR2 peptides (10 µM) were added to different cell types: HeLa, HCT116 and B16/F10 cancer cells and HaCat, BJ and NIH 3T3 normal cells. After 30 min of incubation at 37°C, the FITC-positive cells were counted by flow cytometry. Values represent the percentage of fluorescence-positive cells in the total cell population. (B) Quantitative assessment of cell penetration of each peptide by flow cytometry. HeLa cells were incubated with FITC-labeled peptides at concentrations of 1, 2, 5, or 10 µM for 30 min at 37°C. Afterwards the cells were washed with cold PBS and harvested and cellular fluorescence was analyzed by flow cytometry. […] Prior to analysis, extracellular fluorescence of surface bound peptides was removed by a trypsin treatment (1 mg/ml for 10 min). […]

For the sequence RAGLQFPVGRLLRRLLR [BR2], in series [1], the “transduction efficiency into cancer cells versus normal cells” value was “about 4 fold”. For the same sequence, in series [2], the “percentage of fluorescence-positive cells (cells that internalized peptide)” value is recorded as 23–34%. Also, the “decrease of cellular uptake at 4°C compared to 37°C” value with HeLa cells (FITC-labeled peptide 5 µM, 30 min at 4°C after preincubation at 4°C) was found to be 88.5%. Besides, the “inhibition of penetration by methyl-ß-cyclodextrin (MßCD)” value in the series on HeLa cells (MßCD 5 mM pretreatment 1 h 37°C, peptide 30 min 37°C, mean of three experiments) is recorded as 44.6%. The “reduction of uptake by ATP depletion (sodium azide)” value in the series on HeLa cells (NaN3 10 mM preincubation 1 h 37°C, then FITC-labeled peptide 5 µM 30 min 37°C) is recorded as 67.7%. Besides, the “effect of ganglioside synthesis inhibitor PPMP on peptide uptake” value in the series with HeLa cells (PPMP 5 µM pretreatment 48 h) is given as “significantly reduced”. The “inhibition of cellular uptake by amiloride” value in the series with HeLa cells (amiloride 5 mM pretreatment 1 h 37°C, peptide 30 min 37°C, mean of three experiments) is on record as 36.5%. In the series with HeLa cells (gangliosides (GM3) 20 µg/ml, 30 min), the “effect of exogenous gangliosides on peptide penetration” value is recorded as “partially inhibited”. Further, the “effect of exogenous heparin on peptide uptake” value in the series with HeLa cells (heparin 20 µg/ml, 30 min) is reported as “almost no effect”. In addition, the “effect of nocodazole on peptide transduction” value with HeLa cells (nocodazole 100 ng/ml pretreatment 1 h 37°C, peptide 30 min 37°C) is given as “negligible effect”. Also, the “effect of exogenous sialic acids on peptide penetration” value in the series on HeLa cells (sialic acid (Neu5Ac) 20 µg/ml, 30 min) is on record as “partially inhibited”.
